In patent publication US10968215B2 (SHANGHAI HAIHE PHARMACEUTICAL CO., LTD., priority 2016, dated 2021) one finds IC50 data, which are given here for 26 molecules.

For one assay, the target named is PRC2 complex (EZH2 Y641F/EED/SUZ12/RbAp48/AEBP2) (Homo sapiens (Human), UniProt Q15910, Y641F). The experiment in a line: Activity of a compound to PRC2 complex (EZH2 Y641F), HTRF.
Chain of PRC2 complex (EZH2 Y641F/EED/SUZ12/RbAp48/AEBP2) (Q15910 whole entry Y641F): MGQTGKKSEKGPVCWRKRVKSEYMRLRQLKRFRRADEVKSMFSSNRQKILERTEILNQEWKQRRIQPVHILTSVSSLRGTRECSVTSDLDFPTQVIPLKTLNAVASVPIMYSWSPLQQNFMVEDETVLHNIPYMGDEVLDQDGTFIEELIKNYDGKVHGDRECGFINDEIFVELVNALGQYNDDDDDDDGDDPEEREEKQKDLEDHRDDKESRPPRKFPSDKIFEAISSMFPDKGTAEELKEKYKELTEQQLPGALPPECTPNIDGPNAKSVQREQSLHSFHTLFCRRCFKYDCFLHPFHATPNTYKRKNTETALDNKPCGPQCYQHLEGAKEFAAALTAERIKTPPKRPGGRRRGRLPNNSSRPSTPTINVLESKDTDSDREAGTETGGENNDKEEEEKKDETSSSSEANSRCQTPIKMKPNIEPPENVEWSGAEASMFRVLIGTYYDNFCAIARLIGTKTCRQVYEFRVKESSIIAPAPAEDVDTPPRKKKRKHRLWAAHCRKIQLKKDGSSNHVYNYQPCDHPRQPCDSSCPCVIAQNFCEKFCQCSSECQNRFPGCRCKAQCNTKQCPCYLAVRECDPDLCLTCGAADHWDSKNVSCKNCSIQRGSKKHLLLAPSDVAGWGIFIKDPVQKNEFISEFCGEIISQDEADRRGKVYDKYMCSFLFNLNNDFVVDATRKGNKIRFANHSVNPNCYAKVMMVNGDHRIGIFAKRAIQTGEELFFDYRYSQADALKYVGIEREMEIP
Chain of PRC2 complex (EZH2 Y641F/EED/SUZ12/RbAp48/AEBP2) (O75530 whole entry partner): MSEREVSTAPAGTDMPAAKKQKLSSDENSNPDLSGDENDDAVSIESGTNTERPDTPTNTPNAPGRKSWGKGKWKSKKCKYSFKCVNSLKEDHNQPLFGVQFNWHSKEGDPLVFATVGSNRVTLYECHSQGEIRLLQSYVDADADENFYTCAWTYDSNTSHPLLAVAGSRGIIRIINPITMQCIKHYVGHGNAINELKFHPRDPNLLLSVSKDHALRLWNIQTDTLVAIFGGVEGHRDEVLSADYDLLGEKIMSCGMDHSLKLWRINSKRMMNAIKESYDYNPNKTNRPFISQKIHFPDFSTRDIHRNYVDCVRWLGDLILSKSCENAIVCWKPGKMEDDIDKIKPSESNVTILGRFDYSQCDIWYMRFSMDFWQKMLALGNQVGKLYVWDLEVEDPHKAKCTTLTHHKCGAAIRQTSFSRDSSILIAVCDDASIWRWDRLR
Chain of PRC2 complex (EZH2 Y641F/EED/SUZ12/RbAp48/AEBP2) (Q15022 whole entry partner): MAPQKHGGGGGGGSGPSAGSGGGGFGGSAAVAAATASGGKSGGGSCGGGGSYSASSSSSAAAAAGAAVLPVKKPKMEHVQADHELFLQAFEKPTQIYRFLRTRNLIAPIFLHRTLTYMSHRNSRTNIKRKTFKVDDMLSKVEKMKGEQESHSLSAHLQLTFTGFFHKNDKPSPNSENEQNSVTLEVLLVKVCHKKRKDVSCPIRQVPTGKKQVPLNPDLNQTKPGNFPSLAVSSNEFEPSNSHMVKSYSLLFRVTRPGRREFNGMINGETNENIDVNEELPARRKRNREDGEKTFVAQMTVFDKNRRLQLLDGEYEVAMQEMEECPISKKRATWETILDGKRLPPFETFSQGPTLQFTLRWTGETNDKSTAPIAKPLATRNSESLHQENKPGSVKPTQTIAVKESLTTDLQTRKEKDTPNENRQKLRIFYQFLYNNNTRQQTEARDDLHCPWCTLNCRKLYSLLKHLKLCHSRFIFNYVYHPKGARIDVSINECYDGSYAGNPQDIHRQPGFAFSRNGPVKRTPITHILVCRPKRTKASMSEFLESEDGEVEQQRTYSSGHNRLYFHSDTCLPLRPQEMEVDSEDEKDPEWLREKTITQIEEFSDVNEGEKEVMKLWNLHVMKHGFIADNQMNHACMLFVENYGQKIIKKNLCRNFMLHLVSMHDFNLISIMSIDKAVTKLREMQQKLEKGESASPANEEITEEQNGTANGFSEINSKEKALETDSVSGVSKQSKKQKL
Chain of PRC2 complex (EZH2 Y641F/EED/SUZ12/RbAp48/AEBP2) (Q09028 whole entry partner): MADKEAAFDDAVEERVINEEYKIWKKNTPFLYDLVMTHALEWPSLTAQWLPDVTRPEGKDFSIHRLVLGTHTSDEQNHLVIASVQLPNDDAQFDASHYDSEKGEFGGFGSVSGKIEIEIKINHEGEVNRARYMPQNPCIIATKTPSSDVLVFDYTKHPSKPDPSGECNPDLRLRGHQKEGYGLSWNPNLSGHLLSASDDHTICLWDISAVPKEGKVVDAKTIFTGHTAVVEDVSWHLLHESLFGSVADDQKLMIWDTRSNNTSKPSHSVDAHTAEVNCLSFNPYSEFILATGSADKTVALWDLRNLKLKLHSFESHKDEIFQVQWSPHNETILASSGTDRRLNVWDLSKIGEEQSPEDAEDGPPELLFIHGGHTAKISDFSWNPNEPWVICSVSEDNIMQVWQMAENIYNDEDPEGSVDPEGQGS
Chain of PRC2 complex (EZH2 Y641F/EED/SUZ12/RbAp48/AEBP2) (Q6ZN18 whole entry partner): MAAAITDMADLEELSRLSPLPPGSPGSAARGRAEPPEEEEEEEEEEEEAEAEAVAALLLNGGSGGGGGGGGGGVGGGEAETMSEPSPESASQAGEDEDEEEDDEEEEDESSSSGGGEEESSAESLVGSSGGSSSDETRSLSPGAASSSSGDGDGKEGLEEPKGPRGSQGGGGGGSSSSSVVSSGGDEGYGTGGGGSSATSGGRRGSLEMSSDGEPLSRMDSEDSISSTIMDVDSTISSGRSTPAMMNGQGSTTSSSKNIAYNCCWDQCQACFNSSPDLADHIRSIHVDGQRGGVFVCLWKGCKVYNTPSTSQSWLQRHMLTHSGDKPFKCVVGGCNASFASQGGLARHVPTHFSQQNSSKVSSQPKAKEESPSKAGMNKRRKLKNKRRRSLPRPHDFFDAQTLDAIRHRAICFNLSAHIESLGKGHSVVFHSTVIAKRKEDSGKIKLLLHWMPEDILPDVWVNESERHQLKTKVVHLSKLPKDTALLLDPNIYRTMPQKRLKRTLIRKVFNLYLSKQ
Conditions: not given
The molecule `Cc1cc(=O)c(CNC(=O)c2cc3c(-c4ccc(N)nc4)ccn3c(C(C)N3CCN(CC(F)(F)F)CC3)c2C)c(C)[nH]1` (centres unmarked) [Compound 184, 1-(6-aminopyridin-3-yl)-N-((2,6-dimethyl-4-oxo-1,4-dihydropyridin-3-yl)methyl)-6-methyl-5-(1-(4-(2,2,2-trifluoroethyl)piperazin-1-yl)ethyl)indolizine-7-carboxamide] showed an IC50 of under 0.1 µM.
The molecule `CCCc1cc(C)[nH]c(=O)c1CNC(=O)c1cc2c(-c3ccc(N)nc3)ccn2c(C(C)N2CCN(CC(F)(F)F)CC2)c1C` (centres unmarked) [Compound 185, 1-(6-aminopyridin-3-yl)-6-methyl-N-((6-methyl-2-oxo-4-propyl-1,2-dihydropyridine-3-yl)methyl)-5-(1-(4-(2,2,2-trifluoroethyl)piperazin-1-yl)ethyl)indolizine-7-carboxamide] came in with an IC50 of under 0.1 µM.
The same measure, in the same setting: the figure for `Cc1[nH]c(=O)c(CNC(=O)c2cc3c(-c4ccc(N)nc4)ccn3c(C(C)N3CCN(CC(F)(F)F)CC3)c2C)c2c1CN(CC(C)C)CC2` (centres unmarked) [Compound 188, 1-(6-aminopyridin-3-yl)-N-((7-isobutyl-1-methyl-3-oxo-2,3,5,6,7,8-hexahydro-2,7-naphthyridin-4-yl)methyl)-6-methyl-5-(1-(4-(2,2,2-trifluoroethyl)piperazin-1-yl)ethyl)indolizine-7-carboxamide] is 0.1 to 1 µM; for `COc1cc(C)[nH]c(=O)c1CNC(=O)c1cc2c(-c3ccn[nH]3)ccn2c(C(C)OCc2nccs2)c1C` (centres unmarked) [Compound 191, N-((4-methoxy-6-methyl-2-oxo-1,2-dihydropyridin-3-yl)methyl)-6-methyl-1-(1H-pyrazol-5-yl)-5-(1-(thiazol-2-ylmethoxy)ethyl)indolizine-7-carboxamide] it is under 0.1 µM; for `COc1cc(C)[nH]c(=O)c1CNC(=O)c1cc2c(-c3cnc(C)nc3)ccn2c(C(C)N2CCN(CC(F)(F)F)CC2)c1C` (centres unmarked) [Compound 196, N-((4-methoxy-6-methyl-2-oxo-1,2-dihydropyridin-3-yl)methyl)-6-methyl-1-(2-methylpyrimidin-5-yl)-5-(1-(4-(2,2,2-trifluoroethyl)piperazin-1-yl)ethyl)indolizine-7-carboxamide] it is under 0.1 µM.
`CCc1cc(-c2ccn3c(C(C)N4CCN(CC(F)(F)F)CC4)c(C)c(C(=O)NCc4c(OC)cc(C)[nH]c4=O)cc23)ccn1` (centres unmarked) [Compound 205, 1-(2-ethylpyridin-4-yl)-N-((4-methoxy-6-methyl-2-oxo-1,2-dihydropyridin-3-yl)methyl)-6-methyl-5-(1-(4-(2,2,2-trifluoroethyl)piperazin-1-yl)ethyl)indolizine-7-carboxamide] gave an IC50 of under 0.1 µM.

The assay is the same for the next values; noted with them: read-out: IC50 (EZH2_Y641F); EZH2 Y641F PRC2 complex, HTRF; class symbols.
`Cc1cc(C(F)(F)F)c(CNC(=O)c2cc3c(-c4ccc(N)nc4)ccn3c(C(C)N3CCN(CC(F)(F)F)CC3)c2C)c(=O)[nH]1` (centres unmarked) [Compound 186, 1-(6-aminopyridin-3-yl)-6-methyl-N-((6-methyl-2-oxo-4-(trifluoromethyl)-1,2-dihydropyridine-3-yl)methyl)-5-(1-(4-(2,2,2-trifluoroethyl)piperazin-1-yl)ethyl)indolizine-7-carboxamide]: the IC50 is under 0.1 µM.
Still for that read-out and setting: the figure for `COc1c(CNC(=O)c2cc3c(-c4ccc(N)nc4)ccn3c(C(C)N3CCN(CC(F)(F)F)CC3)c2C)c(=O)[nH]n1C` (centres unmarked) [Compound 187, 1-(6-aminopyridin-3-yl)-N-((5-methoxy-1-methyl-3-oxo-2,3-dihydro-1H-pyrazole-4-yl)methyl)-6-methyl-5-(1-(4-(2,2,2-trifluoroethyl)piperazin-1-yl)ethyl)indolizine-7-carboxamide] is under 0.1 µM; for `Cc1cc(C)c(CNC(=O)c2cc3c(-c4cnn(C5CCOCC5)c4)ccn3c(C(C)N3CCN(CC(F)(F)F)CC3)c2C)c(=O)[nH]1` (centres unmarked) [Compound 190, N-((4,6-dimethyl-2-oxo-1,2-dihydropyridin-3-yl)methyl)-6-methyl-1-(1-(tetrahydro-2H-pyran-4-yl)-1H-pyrazol-4-yl)-5-(1-(4-(2,2,2-trifluoroethyl)piperazin-1-yl)ethyl)indolizine-7-carb oxamide] it is under 0.1 µM.
On to `COc1cc(C)[nH]c(=O)c1CNC(=O)c1cc2c(-c3ccc(C)nc3)ccn2c(C(C)N2CCN(CC(F)(F)F)CC2)c1C` (centres unmarked) [Compound 192, N-((4-methoxy-6-methyl-2-oxo-1,2-dihydropyridin-3-yl)methyl)-6-methyl-1-(6-methylpyridin-3-yl)-5-(1-(4-(2,2,2-trifluoroethyl)piperazin-1-yl)ethyl)indolizine-7-carboxamide], for which the IC50 is under 0.1 µM.
Regarding `COc1cc(-c2ccn3c(C(C)N4CCN(CC(F)(F)F)CC4)c(C)c(C(=O)NCc4c(OC)cc(C)[nH]c4=O)cc23)ccn1` (centres unmarked) [Compound 193, N-((4-methoxy-6-methyl-2-oxo-1,2-dihydropyridin-3-yl)methyl)-1-(2-methoxypyridine-4-yl)-6-methyl-5-(1-(4-(2,2,2-trifluoroethyl)piperazin-1-yl)ethyl)indolizine-7-carboxamide], the IC50 is under 0.1 µM.
In the case of `COc1cc(C)[nH]c(=O)c1CNC(=O)c1cc2c(-c3ccc(C)nn3)ccn2c(C(C)N2CCN(CC(F)(F)F)CC2)c1C` (centres unmarked) [Compound 199, N-((4-methoxy-6-methyl-2-oxo-1,2-dihydropyridin-3-yl)methyl)-6-methyl-1-(6-methylpyridazin-3-yl)-5-(1-(4-(2,2,2-trifluoroethyl)piperazin-1-yl)ethyl)indolizine-7-carboxamide], the IC50 was under 0.1 µM.
As to `COc1cc(C)[nH]c(=O)c1CNC(=O)c1cc2c(-c3ccn[nH]3)ccn2c(N(C)C2CCN(CC(F)(F)F)CC2)c1C` [Compound 202, N-((4-methoxy-6-methyl-2-oxo-1,2-dihydropyridin-3-yl)methyl)-6-methyl-5-(methyl(1-(2,2,2-trifluoroethyl)piperidin-4-yl)amino)-1-(1H-pyrazol-5-yl)indolizine-7-carboxamide], the IC50 was under 0.1 µM.
Regarding `CCN(c1c(C)c(C(=O)NCc2c(OC)cc(C)[nH]c2=O)cc2c(-c3ccnc(N(C)C)c3)ccn12)C1CCN(CC(F)(F)F)CC1` [Compound 203, 1-(2-(dimethylamino)pyridin-4-yl)-5-(ethyl(1-(2,2,2-trifluoroethyl)piperidin-4-yl)amino)-N-((4-methoxy-6-methyl-2-oxo-1,2-dihydropyridin-3-yl)methyl)-6-methylindolizine-7-carboxamide], the IC50 is under 0.1 µM.
As for `CCN(c1c(C)c(C(=O)NCc2c(OC)cc(C)[nH]c2=O)cc2c(-c3ccnc(N(C)C)c3)ncn12)C1CCN(CC(F)(F)F)CC1` [Compound 204, 1-(2-(dimethylamino)pyridin-4-yl)-5-(ethyl(1-(2,2,2-trifluoroethyl)piperidin-4-yl)amino)-N-((4-methoxy-6-methyl-2-oxo-1,2-dihydropyridin-3-yl)methyl)-6-methylimidazo[1,5-a]pyridine-7-carboxamide], the IC50 was under 0.1 µM.
`COc1cc(C)[nH]c(=O)c1CNC(=O)c1cc2c(-c3ccnc(C(C)C)c3)ccn2c(C(C)N2CCN(CC(F)(F)F)CC2)c1C` (centres unmarked) [Compound 206, 1-(2-isopropylpyridin-4-yl)-N-((4-methoxy-6-methyl-2-oxo-1,2-dihydropyridin-3-yl)methyl)-6-methyl-5-(1-(4-(2,2,2-trifluoroethyl)piperazin-1-yl)ethyl)indolizine-7-carboxamide]: the IC50 is under 0.1 µM.
For the molecule `COc1cc(C)[nH]c(=O)c1CNC(=O)c1cc2c(-c3ccnc4c3CCN4)ccn2c(C(C)N2CCN(CC(F)(F)F)CC2)c1C` (centres unmarked) [Compound 207], the IC50 was under 0.1 µM.
Take `COC(C)c1c(C)c(C(=O)NCc2c(C)cc(C)[nH]c2=O)cc2cccn12` (centres unmarked) [Example 1, N-((4,6-Dimethyl-2-oxo-1,2-dihydropyridin-3-yl)methyl)-5-(1-methoxyethyl)-6-methylindolizine-7-carboxamide]: the IC50 lay within 0.1 to 1 µM.
With `CCOC(C)c1c(C)c(C(=O)NCc2c(C)cc(C)[nH]c2=O)cc2cccn12` (centres unmarked) [Example 2, N-((4,6-Dimethyl-2-oxo-1,2-dihydropyridin-3-yl)methyl)-5-(1-ethoxyethyl)-6-methylindolizine-7-carboxamide], the IC50 is 1 to 10 µM.
Same read-out and setting: as for `C=CCOC(C)c1c(C)c(C(=O)NCc2c(C)cc(C)[nH]c2=O)cc2cccn12` (centres unmarked) [Example 3], the figure is 0.1 to 1 µM; as for `C=C(C)COC(C)c1c(C)c(C(=O)NCc2c(C)cc(C)[nH]c2=O)cc2cccn12` (centres unmarked) [Example 5, N-((4,6-Dimethyl-2-oxo-1,2-dihydropyridin-3-yl)methyl)-6-methyl-5-(1-((2-methylallyl)oxy)ethyl)indolizine-7-carboxamide], 0.1 to 1 µM.
As to `Cc1cc(C)c(CNC(=O)c2cc3cccn3c(C(C)OCC(C)C)c2C)c(=O)[nH]1` (centres unmarked) [Example 6, N-((4,6-Dimethyl-2-oxo-1,2-dihydropyridin-3-yl)methyl)-5-(1-isobutyloxyethyl)-6-methylindolizine-7-carboxamide], the IC50 is 1 to 10 µM.
Take `Cc1cc(C)c(CNC(=O)c2cc3cccn3c(C(C)OC3C=CCCC3)c2C)c(=O)[nH]1` (centres unmarked) [Example 7, 5-((cyclohex-2-en-1-yloxy)ethyl)-N-((4,6-dimethyl-2-oxo-1,2-dihydropyridin-3-yl)methyl)-6-methylindolizine-7-carboxamide]: the IC50 was 0.1 to 1 µM.
Consider `Cc1cc(C)c(CNC(=O)c2cc3cccn3c(C(C)OC3CCCCC3)c2C)c(=O)[nH]1` (centres unmarked) [Example 8, 5-(1-(cyclohexyloxy)ethyl)-N-((4,6-dimethyl-2-oxo-1,2-dihydropyridin-3-yl)methyl)-6-methylindolizine-7-carboxamide], for which the half-inhibitory concentration (IC50) lay in the range of 0.1 to 1 µM.
Consider `Cc1cc(C)c(CNC(=O)c2cc3cccn3c(C(C)OCc3ccccc3)c2C)c(=O)[nH]1` (centres unmarked) [Example 9, 5-(1-(benzyloxy)ethyl)-N-((4,6-dimethyl-2-oxo-1,2-dihydropyridin-3-yl)methyl)-6-methylindolizine-7-carboxamide], for which the half-maximal inhibitory concentration (IC50) was in the range of 0.1 to 1 µM.
Consider `Cc1cc(C)c(CNC(=O)c2cc3cccn3c(C(C)OCc3ccccn3)c2C)c(=O)[nH]1` (centres unmarked) [Example 15, N-((4,6-dimethyl-2-oxo-1,2-dihydropyridin-3-yl)methyl)-6-methyl-5-(1-(pyridine-2-ylmethoxy)ethyl)indolizine-7-carboxamide], for which the IC50 lay in the range of 0.1 to 1 µM.
